Results: ChEMBL document CHEMBL1909046, “DrugMatrix in vitro pharmacology data”

How the values were obtained:
[1] = target: Sigma non-opioid intracellular receptor 1 (Homo sapiens, UniProt Q99720); assay: DRUGMATRIX: Sigma1 radioligand binding (ligand: [3H] Haloperidol); format: cell membranes, Jurkat, Membrane; conditions: Not Active = under 50% inhibition at 10 µM
[2] = DRUGMATRIX: Glutamate, AMPA radioligand binding (ligand: [3H] AMPA); format: cell membranes, Rattus norvegicus, Wistar, Cerebral cortex, Membrane; conditions: Not Active = under 50% inhibition at 10 µM
[3] = target: Melanocortin receptor 3 (Homo sapiens, UniProt P41968); format: cell membranes, HEK293, Membrane; note: in other assays of this panel Not Active means under 50% inhibition at 10 µM
[4] = target: Melanocortin receptor 5 (Homo sapiens, UniProt P33032); format: cell membranes, HEK293, Membrane; note: in other assays of this panel Not Active means under 50% inhibition at 10 µM
[5] = target: T1, Interstitial collagenase (Homo sapiens, UniProt P03956); assay: biochemical; format: tissue-based, Rheumatoid synovial fibroblasts;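 note: MMP-1 enzyme inhibition assay using a peptide substrate; in other assays of this panel Not Active means under 50% inhibition at 10 µM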
T1 sequence (P03956 whole entry): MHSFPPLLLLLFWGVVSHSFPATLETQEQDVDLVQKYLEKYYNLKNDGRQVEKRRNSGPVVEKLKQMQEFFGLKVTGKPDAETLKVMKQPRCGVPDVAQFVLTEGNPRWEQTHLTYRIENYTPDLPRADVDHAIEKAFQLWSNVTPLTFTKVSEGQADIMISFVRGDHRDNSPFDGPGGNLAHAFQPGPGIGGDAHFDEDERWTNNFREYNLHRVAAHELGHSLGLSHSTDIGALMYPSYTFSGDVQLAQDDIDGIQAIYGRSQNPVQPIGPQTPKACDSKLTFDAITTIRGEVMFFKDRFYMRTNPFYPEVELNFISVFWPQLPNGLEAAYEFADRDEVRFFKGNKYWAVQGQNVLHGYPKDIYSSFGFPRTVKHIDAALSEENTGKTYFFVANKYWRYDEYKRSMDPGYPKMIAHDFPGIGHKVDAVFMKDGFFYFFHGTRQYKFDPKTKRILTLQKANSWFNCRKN

[6] = target: T2, Adenosine receptor A1 (Homo sapiens, UniProt P30542); format: cell membranes, CHO, Membrane; conditions: cho;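 note: radioligand binding assay at the adenosine A1 receptor, with DPCPX serving as the labelled ligand; in other assays of this panel Not Active means under 50% inhibition at 10 µM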
T2 sequence (P30542 whole entry): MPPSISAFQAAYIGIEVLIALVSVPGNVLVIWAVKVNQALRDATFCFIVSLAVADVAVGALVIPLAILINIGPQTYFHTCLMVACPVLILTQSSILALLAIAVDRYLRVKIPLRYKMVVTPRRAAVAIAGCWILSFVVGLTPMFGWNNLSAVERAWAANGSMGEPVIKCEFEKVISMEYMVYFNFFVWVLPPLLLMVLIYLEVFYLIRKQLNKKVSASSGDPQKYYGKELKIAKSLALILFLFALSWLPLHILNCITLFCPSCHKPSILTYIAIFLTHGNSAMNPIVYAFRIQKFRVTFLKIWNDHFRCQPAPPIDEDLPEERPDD

Chain of Melanocortin receptor 3 (P41968 whole entry): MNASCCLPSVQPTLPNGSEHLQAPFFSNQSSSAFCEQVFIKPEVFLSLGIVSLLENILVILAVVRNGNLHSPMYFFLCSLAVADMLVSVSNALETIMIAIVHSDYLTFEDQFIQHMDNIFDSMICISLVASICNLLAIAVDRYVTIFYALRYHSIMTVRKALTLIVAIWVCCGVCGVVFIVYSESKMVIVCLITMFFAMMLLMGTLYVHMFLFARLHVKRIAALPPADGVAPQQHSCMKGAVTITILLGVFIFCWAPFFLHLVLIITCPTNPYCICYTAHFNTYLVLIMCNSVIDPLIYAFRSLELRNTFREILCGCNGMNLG
Chain of Sigma non-opioid intracellular receptor 1 (Q99720 whole entry): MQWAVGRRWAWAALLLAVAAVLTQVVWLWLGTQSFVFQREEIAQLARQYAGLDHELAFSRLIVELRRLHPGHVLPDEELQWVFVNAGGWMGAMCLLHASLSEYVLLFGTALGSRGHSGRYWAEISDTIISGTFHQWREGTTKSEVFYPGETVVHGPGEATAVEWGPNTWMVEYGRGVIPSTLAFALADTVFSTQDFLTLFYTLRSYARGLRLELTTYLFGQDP
Chain of Melanocortin receptor 5 (P33032 whole entry): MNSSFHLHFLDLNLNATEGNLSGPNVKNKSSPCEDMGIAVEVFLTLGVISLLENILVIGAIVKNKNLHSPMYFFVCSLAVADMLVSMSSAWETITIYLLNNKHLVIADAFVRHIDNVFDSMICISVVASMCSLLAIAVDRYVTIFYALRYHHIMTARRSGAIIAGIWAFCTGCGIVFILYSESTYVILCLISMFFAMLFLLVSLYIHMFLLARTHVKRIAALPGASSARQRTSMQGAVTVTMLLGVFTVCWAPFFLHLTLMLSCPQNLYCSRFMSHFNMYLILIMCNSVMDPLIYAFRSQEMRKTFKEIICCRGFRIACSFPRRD

Compound: Nc1nc(N)c2nc(-c3ccccc3)c(N)nc2n1
- IC50 ([1]; jurkat): Not Active
- IC50 [2]: Not Active
- Ki [2]: Not Active
- IC50 ([3]; hek293): Not Active
- IC50 ([4]; hek293): Not Active
- IC50 [5]: Not Active
- IC50 [6]: Not Active

Compound: CCN(CC)CCNC(=O)c1cc(Cl)c(N)cc1OC [METOCLOPRAMIDE]
- IC50 ([1]; jurkat): Not Active
- IC50 [2]: Not Active
- Ki [2]: Not Active
- IC50 ([3]; hek293): Not Active
- IC50 ([4]; hek293): Not Active
- IC50 [5]: Not Active
- IC50 [6]: Not Active

Compound: Cc1cc2c(s1)Nc1ccccc1N=C2N1CCN(C)CC1 [OLANZAPINE]
- IC50 ([1]; jurkat): Not Active
- IC50 ([3]; hek293): Not Active
- IC50 ([4]; hek293): Not Active
- IC50 [5]: Not Active
- IC50 [6]: Not Active

Compound: Cc1nnc(NS(=O)(=O)c2ccc(N)cc2)s1 [SULFAMETHIZOLE]
- IC50 ([1]; jurkat): Not Active
- IC50 [2]: Not Active
- Ki [2]: Not Active
- IC50 ([3]; hek293): Not Active
- IC50 ([4]; hek293): Not Active
- IC50 [5]: Not Active
- IC50 [6]: Not Active

Compound: CC#C[C@]1(O)CC[C@H]2[C@@H]3CCC4=CC(=O)CCC4=C3[C@@H](c3ccc(N(C)C)cc3)C[C@@]21C [MIFEPRISTONE]
- IC50 ([1]; read-out: IC50): 26300 nM
- Ki ([1]; read-out: Ki): 11000 nM
- IC50 [2]: Not Active
- Ki [2]: Not Active
- IC50 ([3]; hek293): Not Active
- IC50 ([4]; hek293): Not Active
- IC50 [5]: Not Active
- IC50 [6]: Not Active

Compound: CS(=O)(=O)c1ccc(C2=C(c3ccccc3)C(=O)OC2)cc1 [ROFECOXIB]
- IC50 ([1]; jurkat): Not Active
- IC50 [2]: Not Active
- Ki [2]: Not Active
- IC50 ([3]; hek293): Not Active
- IC50 ([4]; hek293): Not Active
- IC50 [5]: Not Active
- IC50 [6]: Not Active

Compound: CC1(C)[C@H](C(=O)O)N2C(=O)C[C@H]2S1(=O)=O [SULBACTAM]
- IC50 ([1]; jurkat): Not Active
- IC50 [2]: Not Active
- Ki [2]: Not Active
- IC50 ([3]; hek293): Not Active
- IC50 ([4]; hek293): Not Active
- IC50 [5]: Not Active
- IC50 [6]: Not Active

Compound: CO[C@@H]1[C@@H](OC)[C@H](C)[C@@](O)(CC(=O)O)O[C@H]1[C@H](C)[C@H]1O[C@@]2(CC[C@@](C)([C@H]3CC[C@@](C)([C@@H]4O[C@@H]([C@H]5O[C@](C)(O)[C@H](C)C[C@@H]5C)C[C@@H]4O[C@@H]4C[C@H](OC)[C@@H](OC)[C@H](C)O4)O3)O2)C[C@H](O)[C@H]1C.N [MADURAMICIN]
- IC50 ([1]; jurkat): Not Active
- IC50 [2]: Not Active
- Ki [2]: Not Active
- IC50 ([3]; hek293): Not Active
- IC50 ([4]; hek293): Not Active
- IC50 [5]: Not Active
- IC50 [6]: Not Active

Compound: CNCCCC12CCC(c3ccccc31)c1ccccc12 [MAPROTILINE]
- IC50 ([1]; jurkat): Not Active
- IC50 ([3]; hek293): Not Active
- IC50 ([4]; hek293): Not Active
- IC50 [5]: Not Active
- IC50 [6]: Not Active

Compound: LEAD(IV) ACETATE
- IC50 ([1]; jurkat): Not Active
- Ki ([1]; jurkat): Not Active
- IC50 [2]: Not Active
- Ki [2]: Not Active
- IC50 ([3]; hek293): Not Active
- Ki ([3]; hek293): Not Active
- IC50 ([4]; hek293): Not Active
- Ki ([4]; hek293): Not Active
- IC50 [5]: Not Active
- Ki [5]: Not Active
- IC50 [6]: Not Active
- Ki [6]: Not Active

Compound: O=C(c1ccccc1)c1ccc2n1CCC2C(=O)O (stereo not given) [KETOROLAC]
- IC50 ([1]; jurkat): Not Active
- IC50 [2]: Not Active
- Ki [2]: Not Active
- IC50 ([3]; hek293): Not Active
- IC50 ([4]; hek293): Not Active
- IC50 [5]: Not Active
- IC50 [6]: Not Active

Compound: CC[C@H](C)[C@@H](CO[C@@H](Cc1ccccc1)C(=O)N[C@@H](CCS(C)(=O)=O)C(=O)OC(C)C)NC[C@@H](N)CS
- IC50 ([1]; jurkat): Not Active
- IC50 [2]: Not Active
- Ki [2]: Not Active
- IC50 ([3]; read-out: IC50): 3390 nM
- Ki ([3]; read-out: Ki): 2960 nM
- IC50 ([4]; read-out: IC50): 122 nM
- Ki ([4]; read-out: Ki): 114 nM
- IC50 [5]: Not Active
- IC50 [6]: Not Active

Compound: CN1C(=O)OC(C)(C)C1=O [TRIMETHADIONE]
- IC50 ([1]; jurkat): Not Active
- IC50 [2]: Not Active
- Ki [2]: Not Active
- IC50 ([3]; hek293): Not Active
- IC50 ([4]; hek293): Not Active
- IC50 [5]: Not Active
- IC50 [6]: Not Active

Compound: CCC(C)(C)C(=O)O[C@H]1C[C@@H](C)C=C2C=C[C@H](C)[C@H](CC[C@@H]3C[C@@H](O)CC(=O)O3)[C@H]21 [SIMVASTATIN]
- IC50 ([1]; jurkat): Not Active
- IC50 [2]: Not Active
- Ki [2]: Not Active
- IC50 ([3]; hek293): Not Active
- IC50 ([4]; hek293): Not Active
- IC50 [5]: Not Active
- IC50 [6]: Not Active

Compound: Cc1ccc(S(=O)(=O)NC(=O)NN2CCCCCC2)cc1 [TOLAZAMIDE]
- IC50 ([1]; jurkat): Not Active
- IC50 [2]: Not Active
- Ki [2]: Not Active
- IC50 ([3]; hek293): Not Active
- IC50 ([4]; hek293): Not Active
- IC50 [5]: Not Active
- IC50 [6]: Not Active

Compound: CN(C)CCC=C1c2ccccc2COc2ccccc21 [DOXEPIN]
- IC50 ([1]; read-out: IC50): 631 nM
- Ki ([1]; read-out: Ki): 265 nM
- IC50 ([3]; hek293): Not Active
- IC50 ([4]; hek293): Not Active
- IC50 [5]: Not Active
- IC50 [6]: Not Active
